Measured values as given in patent US20240207453A1, “13C METHACETIN GRANULE, AND PREPARATION METHOD THEREFOR AND USE THEREOF” (BEIJING RICHEN-FORCE SCIENCE & TECHNOLOGY CO., LTD, priority 2021, published 2024).

Experiments:
[1] = comparison of water solubility; assay type: physicochemical; conditions: against the requirements of clinical use
[2] = comparison of stability (appearance, impurities) during storage; assay type: physicochemical
Procedure: Experimental Groups 1 to 6: the 13C-methacetin granular formulations prepared in Examples 1 to 6 of the present disclosure
Control Group 1: a powdered formulation. The respective adjuvant materials and the raw drug were weighed at a prescribed ratio and mixed uniformly in a mixer for 3 hours, whereby a powdered formulation or a powder was prepared.
Control Group 2: another granular formulation.
13C-methacetin has a low solubility in water, has a slow dissolution rate, should be stirred for a long time when being dissolved in 100 ml of water in an amount of 50 mg, and thus is not convenient in oral administration. […] The powders are agglomerated during storage. The addition of the adjuvant materials helps to improve the stability of the product, and the degraded impurities are less than those of the raw drug powder. […] By comparison, the developed granular formulation has better stability and water solubility, is stable in quality, and has high value in use.

water solubility (in words) [1]: low
Stability: Appearance (agglomeration) [2]: likely to agglomerate
Structure (SMILES): CC(=O)Nc1ccc(O[13CH3])cc1 [13C-methacetin, N-acetyl-p-anisidine (methoxy-13C)]
